Data reported in publication PMC6591251, “Discovery of potent necroptosis inhibitors targeting RIPK1 kinase activity for the treatment of inflammatory disorder and cancer metastasis” (Cell Death & Disease, 2019).

What was measured:
[1] = test system: B16-F10 or RFP-LL/2 cells; assay: Proliferation rate and invasion ability without endothelial monolayer; type: cell-based, mouse; details: B16-F10 or RFP-LL/2, in vitro
Method: Studies have shown that RIPK1 kinase activity is involved in the promotion of tumor metastasis through death receptor 6-dependent necroptosis of endothelial cells[22] or VEGF-dependent activation of vascular permeability. We thus evaluated the therapeutic effect of PK68 on lung metastasis of mouse melanoma B16-F10 cells in vivo. […] After 2 weeks, the metastasis of B16-F10 cells was measured by histological analysis and assessed as the number of metastasis nodules in the lung. […] Two weeks after intravenous injection of RFP-LL/2 cells, RFP^+ LL/2 cells were isolated from the tumor tissues by flow cytometer sorting and no signal of phosphorylated RIPK1 was detected in these tumors cells (Supplementary Fig. 22). Six hours after intravenous injection of RFP-LL/2 cells into C57BL/6 mice, the RFP-LL/2 cells have extravasated through blood vessels into the lung (Supplementary Fig. 23). […] Further, we evaluated the effect of PK68 on the tumor cell transmigration across the cultured endothelium. We isolated CD31^+ endothelial cells from the lungs and performed the transendothelial migration assay as previously reported. […]
(A-B) B16-F10 and RFP-LL/2 cells were pretreated with indicated compounds for 1h and then cell viability was measured by cell Titer-Glo. (C) B16-F10 and RFP-LL/2 cells were pre-treated with indicated compounds and invasion ability was measured by the transwell assay.

[2] = test system: human cells; set-up: method as in PMID 27551444, PMID 28151659; details: cited from earlier work
[3] = test system: mouse and rat; set-up: method as in PMID 27551444, PMID 28151659; details: cited from earlier work
[4] = test system: NIH3T3-RIPK3 cells; assay: RIPK3 dimerization-induced necroptosis (AP20187); type: cell-based, mouse; details: AP20187 100 nM, 24 h
Method: (§1) Recombinant proteins were incubated with PK6 and PK68 as indicated. […] NIH3T3-RIPK3 cells were pretreated with indicated compounds for 1 h and subsequently treated with T (40 ng/ml)/S (100 nM)/Z (20 μM) or AP20187 (100 nM) for 24 h. Cell viability was determined by measuring ATP levels. e PK6 and PK68 have no effect on MLKL dimerization-induced cell death in HeLa-MLKL (1–190) cells that stably express MLKL (1–190aa) fused to DmrB. HeLa-MLKL (1–190) cells were pretreated with indicated compounds for 1 h and subsequently treated with AP20187 (100 nM) for 24 h. Cell viability was determined by measuring ATP levels.
(§2) Further, we evaluated the selectivity of PK68 against a panel of 369 kinases provided by Reaction Biology (at 1000 nM). […] In addition, we followed on some of the active “hits” from the kinome scan. PK68 was tested against TNIK and TRKA by a reputable CRO company. […] RIPK1 is known to mediate NF-κB activation independently of its kinase activity. […] It has been shown that homodimerization of RIPK3 or MLKL induced by the dimerizer leads to necroptosis bypassing the upstream signals[10],[37]. […] This dimerized RIPK3-induced necroptosis was blocked by RIPK3 inhibitor GSK873 but was not blocked by the RIPK1 inhibitor necrostatin-1. […] (Fig. 4e).
(§3) The cell viability was analyzed by using the CellTiter-Glo Luminescent Cell Viability Assay kit following the manufacturer’s instructions (Promega). Luminescence was measured with SpectraMax i3x (Molecular Devices).

[5] = test system: HT-29 cells; assay: TNF-induced necroptosis (TNFα/Smac mimetic/z-VAD), cell viability by ATP levels; type: cell-based, human; details: Homo sapiens, HT-29, 48 h, T/S/Z 48 h, read-out: EC50(nM) HT-29
Method: (§4) Necroptosis is tightly regulated by RIP kinases including RIPK1 and RIPK3. To develop new necroptosis inhibitors, we screened a small-molecule library of around 240 potential kinase inhibitors that were designed with novel structures to affect the ATP-binding pocket of protein kinases. Human colon cancer HT-29 cells were treated with these compounds for […], followed by treatment with necroptotic stimuli (TNFα, Smac mimetic, and z-VAD) that are known to activate TNF-mediated necroptosis. After 48 h, cell viability was analyzed by monitoring ATP levels.
(§5) Fig. 1 PK6 efficiently blocks TNF-α induced necroptosis in both human and mouse cells. a HT-29 cells cultured in 96-well plates were pretreated with the indicated compounds (10 μM) from a library consisting of ~240 compounds that we designed with novel structures for 1 h and subsequently treated with 40 ng/ml TNF-α (T), 100 nM Smac mimetic (S), and the caspase inhibitor 20 μM z-VAD(Z) for 48 h. Cell viability was assessed by measuring ATP levels. Data are represented as the mean ± standard deviation of duplicates. b Chemical structure of PK6. c Dose response curve and EC50 ± SD value for PK6 in TNF-α induced necroptosis in HT-29 cells. Cells were pretreated with indicated concentrations of PK6 for 1 h prior to the treatment with T (40 ng/ml), S (100 nM), and Z (20 μM) for 48 h. Cell viability was assessed by measuring ATP levels. d U937 cells were pretreated with indicated concentrations of PK6 for 1 h followed by the treatment with T (40 ng/ml), S (100 nM), and Z (20 μM) for 24 h. e MEF cells were pretreated with indicated concentrations of PK6 for 1 h followed by the treatment with T (40 ng/ml), S (100 nM), and Z (20 μM) for 24 h. f L929 cells were pretreated with indicated concentrations of PK6 for 1 h prior to the treatment with S (100 nM) and Z (20 μM) for 24 h.
(§6) Fig. 2 Chemical optimization of PK6 leads to improvements in anti-necroptotic activity. a, b The effects of the indicated compounds on cell viability were examined in HT-29 cells (a) and L929 cells (b). HT-29 cells were treated as indicate for 48 h and L929 cells for 24 h. Cell viability was assessed by measuring ATP levels. Data are represented as the mean ± standard deviation of triplicates. c Structure and EC50 ± SD value of each compound are shown in the table. EC50 values are the average of at least two independent determinations. d Lead optimization of PK6 TEXT PRINTED IN THE PICTURE: (c) PK6: EC50(nM) HT-29: 1200±53; EC50(nM) L929: 760±26 | (c) PK67: EC50(nM) HT-29: 250±6.3; EC50(nM) L929: 130±6.8 | (c) PK81: EC50(nM) HT-29: 120±7.6; EC50(nM) L929: 20±0.98 | (c) PK84: EC50(nM) HT-29: 97±6.7; EC50(nM) L929: 45±2.1 | (c) PK93: EC50(nM) HT-29: 130±36; EC50(nM) L929: 30±7.4 | (c) PK86: EC50(nM) HT-29: 73±3.9; EC50(nM) L929: 15±1.0 | (c) PK68: EC50(nM) HT-29: 23±1.4; EC50(nM) L929: 13±0.85
as §3

[6] = test system: L929 cells; assay: TNF-induced necroptosis, cell viability by ATP levels; type: cell-based; details: Mus musculus, L929, 24 h, read-out: EC50(nM) L929
Method: as §4, §5, §6, §3

[7] = test system: HeLa-MLKL (1–190) cells; assay: MLKL dimerization-induced cell death (AP20187); type: cell-based, human; details: AP20187 100 nM, 24 h
Method: as §1, §2, §3

CN1C(=O)NC(Cc2c[nH]c3c(Cl)cccc23)C1=O (stereo not drawn) [Nec-1s, 7-Cl-O-Nec-1, reference compound]
proliferation rate and invasion ability [1]: no obvious influence

CC(C)(C)C(=O)N1N=CC[C@H]1c1ccccc1 [GSK963]
potency in human cells [2]: extremely potent
cellular efficacy in mouse and rat [3]: highly reduced cellular efficacy

CN1C(=O)C(Cc2c[nH]c3ccccc23)NC1=S (stereo not drawn) [necrostatin-1, Necrostatin-1, reference compound]
RIPK3 dimerization-induced necroptosis [4]: not blocked

CC(=O)Nc1nc2ccc(-c3cc(NC(=O)OC4CCCCC4)c(C)cn3)cc2s1 [PK86, cyclohexyl (2-(2-acetamidobenzo[d]thiazol-6-yl)-5-methylpyridin-4-yl)carbamate]
EC50 [5]: 73 ± 3.9 nM
EC50 [6]: 15 ± 1 nM
melting point: 227 to 228 °C

CC(=O)Nc1cn2cc(-c3cnc(C)c(NC(=O)OC4CCCCC4)c3)ccc2n1 [PK84, cyclohexyl (5-(2-acetamidoimidazo[1,2-a]pyridin-6-yl)-2-methylpyridin-3-yl)carbamate]
EC50 [5]: 97 ± 6.7 nM
EC50 [6]: 45 ± 2.1 nM
melting point: 268 to 269 °C (dec.)

CC(=O)Nc1nc2ccc(-c3cnc(C)c(NC(=O)OC4CCCCC4)c3)nc2s1 [PK93, cyclohexyl (5-(2-acetamidothiazolo[5,4-b]pyridin-5-yl)-2-methylpyridin-3-yl)carbamate]
EC50 [5]: 130 ± 36 nM
EC50 [6]: 30 ± 7.4 nM
melting point: 230 to 231 °C (dec.)

COc1nccnc1NS(=O)(=O)c1ccc(NC(=O)/C=C/c2ccc([N+](=O)[O-])s2)cc1 [necrosulfonamide, reference compound]
polymerized MLKL-induced necroptosis [7]: effectively suppressed

CC(=O)Nc1nc2ccc(-c3cnc(C)c(NC(=O)CC4CCCCC4)c3)cc2s1 [PK67, N-(5-(2-acetamidobenzo[d]thiazol-6-yl)-2-methylpyridin-3-yl)-2-cyclohexylacetamide]
EC50 [5]: 250 nM
EC50 [6]: 130 nM

CN1C(=O)[C@@H](NC(=O)c2n[nH]c(Cc3ccccc3)n2)COc2ccccc21 [GSK2982772]
potency in human cells [2]: extremely potent
cellular efficacy in mouse and rat [3]: highly reduced cellular efficacy

CC(=O)Nc1nc2ccc(-c3cnc(C)c(NC(=O)OC4CCCC4)c3)cc2s1 [PK81, cyclopentyl (5-(2-acetamidobenzo[d]thiazol-6-yl)-2-methylpyridin-3-yl)carbamate]
EC50 [5]: 120 ± 7.6 nM
EC50 [6]: 20 ± 0.98 nM
melting point: 246 to 247 °C (dec.)
